Measured values from patent publication US9850283B2, “Macrocyclic inhibitors of the PD-1/PD-L1 and CD80(B7-1)/PD-L1 protein/protein interactions” (BRISTOL-MYERS SQUIBB COMPANY, priority 2013, dated 2017).
Read-outs that look alike come from different tables or passages of the source. Positions of bridges follow the written chain, without caps; N, C: chain ends. Non-standard residues stand in square brackets, D forms with d. Residues, ends and D or L forms follow the SMILES beside them. ξ: configuration not given here. Phe(3,4,5-F3) = N[C@@H](Cc1cc(F)c(F)c(F)c1)C(=O)O; Pro(4R-NH2) = N[C@H]1CN[C@H](C(=O)O)C1; d(cisHyp) = O=C(O)[C@H]1C[C@@H](O)CN1; Bta = N[C@@H](Cc1csc2ccccc12)C(=O)O; Hyp = O=C(O)[C@@H]1C[C@@H](O)CN1; NMeF = CN[C@@H](Cc1ccccc1)C(=O)O; AllylGly = C=CC[C@H](N)C(=O)O; NMeNle = CCCC[C@H](NC)C(=O)O; Pip = O=C(O)[C@@H]1CCCCN1; NMeA = CN[C@@H](C)C(=O)O; Orn = NCCC[C@H](N)C(=O)O; Dab = NCC[C@H](N)C(=O)O; dAze = O=C(O)[C@H]1CCN1; Dap = NC[C@H](N)C(=O)O; ξC = NC(CS)C(=O)O; Sar = CNCC(=O)O

Legend:
[1] = molecular target: T1, Human PD-L1/PD-1 (Homo sapiens, UniProt Q9NZQ7); experiment: HTRF PD-1-Ig/PD-L1-His binding assay (human PD-L1); conditions: cluster symbol; read-out: HTRF IC50 cluster
T1 construct: made in house; host or cells: HEK293T
Method in brief: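 Soluble Fc-fused PD-1 and His-tagged PD-L1 (truncated before the transmembrane region) were combined in dPBS with 0.1% (w/v) BSA and 0.05% (v/v) Tween-20. Binding was read by HTRF using europium cryptate anti-Ig antibody (1 nM final) and APC anti-His antibody (20 nM final).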

[2] = molecular target: T2, LK35.2-hPD-L1 cells / PE-labeled PD-1-Ig (Homo sapiens, UniProt Q9NZQ7); experiment: LK35.2-hPD-L1 cell binding high-content screening assay; assay type: cell-based; conditions: cluster symbol, read-out: CBA IC50 cluster
T2 construct: expressed in transfected cells; host or cells: LK35.2 mouse B cell line
Method in brief: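 Fluorescent PD-1-Ig binding to PD-L1-expressing LK35.2 cells, imaged after washing. Conditions: 1 nM PE-PD-1-Ig, 37 °C, 1 h, RPMI with 10% fetal calf serum.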

[3] = cell binding assay, cell line not given
[4] = cell line of CBA not given (LK35.2-hPD-L1 or 293T-hPD-L1)

T1 sequence (Q9NZQ7 with tags, fused parts or gaps): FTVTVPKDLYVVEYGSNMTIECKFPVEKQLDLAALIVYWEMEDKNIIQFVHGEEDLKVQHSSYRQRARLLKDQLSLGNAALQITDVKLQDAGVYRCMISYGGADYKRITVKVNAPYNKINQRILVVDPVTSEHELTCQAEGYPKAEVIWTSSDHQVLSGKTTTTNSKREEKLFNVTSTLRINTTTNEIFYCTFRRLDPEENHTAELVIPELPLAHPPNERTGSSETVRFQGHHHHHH
T2 sequence (Q9NZQ7 19-290): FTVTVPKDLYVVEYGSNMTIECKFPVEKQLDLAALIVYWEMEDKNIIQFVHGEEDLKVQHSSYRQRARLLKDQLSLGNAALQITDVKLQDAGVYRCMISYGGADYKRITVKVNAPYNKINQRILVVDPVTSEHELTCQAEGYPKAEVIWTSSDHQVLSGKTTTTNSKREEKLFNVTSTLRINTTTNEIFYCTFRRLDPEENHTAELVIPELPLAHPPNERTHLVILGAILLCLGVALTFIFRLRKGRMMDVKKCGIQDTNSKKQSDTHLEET

Row | Compound | IC50 [1] [nM] | IC50 [2, 3] [nM] | IC50 [2, 4] [nM]
1 | C=CC[C@@H]1NC(=O)[C@H](Cc2c[nH]c3ccccc23)NC(=O)[C@@H]2CCCN2C(=O)[C@H](CC(C)C)NC(=O)[C@H](CN)NC(=O)[C@@H]2CCCN2C(=O)[C@H](CC(N)=O)NC(=O)[C@H](C)N(C)C(=O)[C@H](Cc2ccc(O)cc2)NC(=O)CSC[C@@H](C(=O)NCC(N)=O)NC(=O)[C@H](CC=C)NC(=O)[C@H](CCCC)N(C)C(=O)[C@H](CCCC)N(C)C(=O)[C@H](Cc2c[nH]c3ccccc23)NC1=O [Example 7022] ({CH2CO}-Y[NMeA]NP[Dap]LPW[AllylGly]W[NMeNle][NMeNle][AllylGly]CG-NH2; thioether N-14) | 6.76 to 30.3 | 4.78 to 72.9 | –
2 | CCCC[C@H]1C(=O)N(C)[C@@H](CCCC)C(=O)N[C@@H](CCCNC(=N)N)C(=O)N[C@H](C(=O)NCC(N)=O)CSCC(=O)N[C@@H](Cc2ccccc2)C(=O)N(C)[C@@H](C)C(=O)N[C@@H]([C@@H](C)O)C(=O)N2CCC[C@H]2C(=O)N[C@@H](Cc2cnc[nH]2)C(=O)N[C@@H](CC(C)C)C(=O)N(C)CC(=O)N[C@@H](Cc2c[nH]c3ccccc23)C(=O)N[C@@H](CO)C(=O)N[C@@H](Cc2c[nH]c3ccccc23)C(=O)N1C [Example 5020] ({CH2CO}-F[NMeA]TPHL[Sar]WSW[NMeNle][NMeNle]RCG-NH2; thioether N-14) | > 30.5 | > 74.3 | –
3 | CCCC[C@H]1C(=O)N(C)[C@@H](CCCC)C(=O)N[C@@H](CCCNC(=N)N)C(=O)NC(C(=O)NCC(N)=O)CSCC(=O)N[C@@H](Cc2ccc(O)cc2)C(=O)N(C)[C@@H](C)C(=O)N[C@@H](CC(N)=O)C(=O)N2CCC[C@H]2C(=O)N[C@@H](CO)C(=O)N[C@@H](CC(C)C)C(=O)N2CCC[C@H]2C(=O)N[C@@H](Cc2c[nH]c3ccccc23)C(=O)N[C@@H](CO)C(=O)N[C@@H](Cc2csc3ccccc23)C(=O)N1C (some centres unmarked) [Example 9072] ({CH2CO}-Y[NMeA]NPSLPWS[Bta][NMeNle][NMeNle]R[ξC]G-NH2; thioether N-14) | 0.385 to 6.74 | 0.158 to 4.71 | –
4 | CCCC[C@H]1C(=O)N(C)[C@@H](CCCC)C(=O)N[C@@H](CCCNC(=N)N)C(=O)N[C@H](C(=O)NCC(N)=O)CSCC(=O)N[C@@H](Cc2ccc(O)cc2)C(=O)N(C)[C@@H](C)C(=O)N[C@@H](CC(N)=O)C(=O)N2CCC[C@H]2C(=O)N[C@@H](CN)C(=O)N[C@@H](CCC(N)=O)C(=O)N2C[C@H](O)C[C@H]2C(=O)N[C@@H](Cc2c[nH]c3ccccc23)C(=O)N[C@@H](CO)C(=O)N[C@@H](Cc2csc3ccccc23)C(=O)N1C [Example 6023] ({CH2CO}-Y[NMeA]NP[Dap]Q[Hyp]WS[Bta][NMeNle][NMeNle]RCG-NH2; thioether N-14) | 6.76 to 30.3 | 0.158 to 4.71 | –
5 | CCCC[C@H]1C(=O)N(C)[C@@H](CCCC)C(=O)N[C@@H](CO)C(=O)N[C@H](C(=O)NCC(N)=O)CSCC(=O)N[C@@H](Cc2ccc(O)cc2)C(=O)N(C)[C@@H](C)C(=O)N[C@@H](CCN)C(=O)N2CCC[C@H]2C(=O)N[C@@H](Cc2c[nH]cn2)C(=O)N[C@@H](CCC(=O)O)C(=O)N2C[C@H](O)C[C@H]2C(=O)N[C@@H](Cc2c[nH]c3ccccc23)C(=O)N[C@@H](CO)C(=O)N[C@@H](Cc2c[nH]c3ccccc23)C(=O)N1C [Example 5108] ({CH2CO}-Y[NMeA][Dab]PHE[Hyp]WSW[NMeNle][NMeNle]SCG-NH2; thioether N-14) | 6.76 to 30.3 | 4.78 to 72.9 | –
6 | CCCC[C@H]1C(=O)N(C)[C@@H](CCCC)C(=O)N[C@@H](CCCN)C(=O)N[C@H](C(=O)NCC(N)=O)CSCC(=O)N[C@@H](Cc2ccc(O)cc2)C(=O)N2CCCC[C@H]2C(=O)N[C@@H](CC(=O)O)C(=O)N2CCC[C@H]2C(=O)N[C@@H](CN)C(=O)N[C@@H](CC(C)C)C(=O)N2C[C@H](O)C[C@H]2C(=O)N[C@@H](Cc2c[nH]c3ccccc23)C(=O)N[C@@H](CO)C(=O)N[C@@H](Cc2c[nH]c3ccccc23)C(=O)N1C [Example 1235] ({CH2CO}-Y[Pip]DP[Dap]L[Hyp]WSW[NMeNle][NMeNle][Orn]CG-NH2; thioether N-14) | 6.76 to 30.3 | – | 0.158 to 4.71
7 | CCCC[C@H]1C(=O)N2C[C@H](O)C[C@@H]2C(=O)N2C[C@H](N)C[C@H]2C(=O)N[C@@H](C(C)C)C(=O)N(C)[C@@H](Cc2ccccc2)C(=O)N[C@@H](Cc2ccc(O)cc2)C(=O)N2CC[C@@H]2C(=O)N[C@@H](Cc2c[nH]c3ccccc23)C(=O)N[C@@H](Cc2ccc(O)cc2)C(=O)N[C@@H](CC(C)C)C(=O)N[C@H](C(=O)NCC(N)=O)CSCC(=O)N[C@@H](Cc2cc(F)c(F)c(F)c2)C(=O)N(C)[C@@H](Cc2ccccc2)C(=O)N1C [Example 3195] ({CH2CO}-[Phe(3,4,5-F3)][NMeF][NMeNle][d(cisHyp)][Pro(4R-NH2)]V[NMeF]Y[dAze]WYLCG-NH2; thioether N-13) | 0.385 to 6.74 | – | 0.158 to 4.71
